Target: T1, AAT polymer (Z variant of the human allele of AAT) (Homo sapiens, UniProt P01009, E366K/V237A)
T1 construct: At study termination, plasma was collected via cardiac puncture; from tissue; host or cells: plasma of transgenic PiZ mice (C57BL/6 background) carrying the human SERPINA1 Z gene
Assay: Pharmacodynamic effect of Compound 2 treatment on polymer levels in a PiZ mouse model (polymer sandwich ELISA of plasma)
Assay type: in vivo
Conditions: male PiZ hemizygous mice
Procedure: Eleven week-old male PiZ mice, hemizygous for the Z variant of the human allele of AAT, were orally administered a suspension of either vehicle or Compound 2 QD at 50 and 100 mg/kg/day for 72 hours or 5, 16, 50, and 100 mg/kg/day for 28 days. At study termination, plasma was collected via cardiac puncture and liver tissue was collected and preserved in 10% neutral buffered formalin.
Liver polymer staining was assessed as the % area of liver tissue that stains positively by monoclonal antibody 2C1 immunohistochemistry.
High bind EIA/RIA microplates (Costar, 3590) were coated with 100 μL mouse monoclonal anti-human AAT polymer antibody (Hycult Biotech, HM2289, clone 2C1) diluted to 2 μg/mL in carbonate-bicarbonate buffer (0.2M, pH 9.4) and incubated for 90 minutes at 37° C. (while shaking) or alternatively overnight (up to 72 hours) at 4° C. (still). […] Following color development, 100 μL 1N sulfuric acid was added to stop the reaction and absorbance was immediately measured at 450 nm and 650 nm for background subtraction with a microplate reader (Molecular Devices, SpectraMax M3). […]

T1 sequence (P01009 25-418 V237A/E366K): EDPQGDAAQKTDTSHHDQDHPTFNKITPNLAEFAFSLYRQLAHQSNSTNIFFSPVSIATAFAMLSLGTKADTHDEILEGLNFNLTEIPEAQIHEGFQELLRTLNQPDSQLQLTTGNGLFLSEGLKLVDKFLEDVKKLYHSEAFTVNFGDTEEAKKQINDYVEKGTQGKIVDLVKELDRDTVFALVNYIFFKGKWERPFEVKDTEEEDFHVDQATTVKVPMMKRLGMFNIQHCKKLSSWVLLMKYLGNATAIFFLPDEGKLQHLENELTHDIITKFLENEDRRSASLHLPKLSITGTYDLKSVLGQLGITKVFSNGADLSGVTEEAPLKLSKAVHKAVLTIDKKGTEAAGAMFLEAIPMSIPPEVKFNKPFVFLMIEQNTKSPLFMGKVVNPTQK

O=C(O)c1ccc(-c2c(C3CCOCC3)n(-c3ccc(F)c(F)c3)c3cc4cn[nH]c4cc23)cc1 [Compound 2]
AAT plasma polymer levels (QD 5, 16, 50 and 100 mg/kg/day PO for 28 days, vs vehicle (FIG. 5B)): dose response decrease | AAT plasma polymer levels (QD 50 and 100 mg/kg/day PO for 72 hours, vs vehicle (FIG. 5A)): dose response decrease

Reference: US20240012010A1, “METHODS OF MONITORING ALPHA-1 ANTITRYPSIN (AAT) DEFICIENCY BY MEASURING POLYMERISED AAT” (Vertex Pharmaceuticals Incorporated, priority 2020, published 2024)
